From patent US20120059005A1, “COMBINATION OF (A) A PHOSPHOINOSITIDE 3-KINASE INHIBITOR AND (B) AN ANTIDIABETIC COMPOUND FOR USE IN THE TREATMENT OF PROLIFERATIVE DISEASES” (NOVARTIS AG, priority 2009, published 2012)
“Also recorded” adds a separate entry of the source. Like-named read-outs stand apart in the source and are kept apart here.

What was measured:
[1] = tested on: phosphorylated and total AMPK, MAPK, EGFR, HER and S6 ribosomal protein; experiment: Western blot of phosphorylated and total signalling proteins in breast cancer cells; format: cell-based
Description: (§1) MCF-7(HER2), SK-BR-3, MDA-MB-231 and MDA-MB-468 breast cancer cells are treated with different doses of 2-Methyl-2-[4-(3-methyl-2-oxo-8-quinolin-3-yl-2, 3-dihydro-imidazo[4,5-c]quinolin-1-yl)-phenyl]-propionitrile, also known as COMPOUND A, metformin or both agents in combination. Levels of phosphorylated and total AMPK, MAPK, EGFR, HER and S6 ribosomal protein are evaluated by western blot. Cell proliferation analyses are performed in triplicates using the WST-1 and crystal violet colorimetric assays.

[2] = tested on: H520 non-small cell lung tumors; experiment: H520 xenograft 20-day tumor growth inhibition assay; format: in vivo, nude mice; settings: for Mean Tumor Vol. Change / Regression / T/C: Day 20
Description: EGFR-null H520 human non-small cell lung cancer (NSCLC) cells are treated with different doses of 2-Methyl-2-[4-(3-methyl-2-oxo-8-quinolin-3-yl-2, 3-dihydro-imidazo[4,5-c]quinolin-1-yl)-phenyl]-propionitrile monotosylate salt (also known as COMPOUND A) or 5-(2,6-di-morpholin-4-yl-pyrimidin-4-yl)-4-trifluoromethyl-pyridin-2-ylamine hydrochloride salt (also known as COMPOUND C), a single dose of metformin or both agents in combination, The H520 human NSCLC cells (NCl-H520, ATCC-HTB-182, available from American Type Culture Collection, Rockville, Md. US) are isolated from a sample of a lung mass taken from a patient with squamous cell carcinoma of the lung (Banks-Schlegel et at Cancer Res, 45(3): 1187-1197 (1985).
H520 tumor cells are grown in RPMI 1640 medium containing 100 units/mL penicillin G sodium, 100 μg/ML streptomycin sulfate, and 25 µg/mL gentamicin. The medium is supplemented with 10% fetal bovine serum, 2 mM glutamine, and 1 mM sodium pyruvate, and buffered with 10 mM HEPES and 0.075% sodium bicarbonate. The cells are cultured in tissue culture flasks in a humidified incubator at 37° C., in an atmosphere of 5% CO2 and 95% air. The cells are harvested for injection into 8-week old female nu/nu (nude) mice (Harlan Laboratories, Indianapolis, Ind.) by detaching the monolayers with 1× trypsin and resuspending at 5×10^7cells/mL in phosphate-buffered saline containing 50% Matrigel.
0.2 mL of H520 tumor cell suspension (1×10^7 cells) is injected subcutaneously in the right flank of 8-week old female nu/nu (nude) mice (Harlan Laboratories, Indianapolis, Ind.) having a body weight (BW) range of 18.1-26.9 g on Day 1 of the study. Tumors are monitored twice weekly and then daily as their mean volume approaches 120-180 mm^3. […] Tumor weight can be estimated with the assumption that 1 mg is equivalent to 1 mrn^3 of tumor volume.
The 11 groups of nude mice are treated as follows. One group of eight mice serves as Controls (C or Control) for all analyses and is administered intraperitoneally (i.p.) 50 mM sodium acetate at pH 4 (Vehicle 1) and then administered by oral gavage (p.o.) a composition comprising 10% N-methylpyrrolidone: 90% polyethylene glycol 300 (PEG 300) (Vehicle 2). […] Metformin is dissolved in 50 mM sodium acetate at pH 4 for dosing,
Compound C is stored at −20° C. protected from light. Stock solutions (10×) in 100% N-methylpyrrolidone (NMP) are prepared every five days, aliquotted, and stored in the dark at room temperature. On each treatment day, stock solution aliquots are diluted with polyethylene glycol (PEG300) to provide the formulated drug (Compound A or Compound C) in 10% NMP: 90% PEG300, Dosing solutions are protected from light and the formulated drug is administered within 1 hour after preparation.
For combination therapies, Compound A or Compound C is administered by oral gavage (p.o.) within 30 minutes after the intraperitoneal (i.p.) administration of metformin, except on Day 20 when Compound A or Compound C is given immediately after metformin.
Paclitaxel (Natural Pharmaceuticals, Inc., Beverly, Mass., USA) is administered by bolus tail-vein injections (i.v.) once daily on alternate days for five doses. Paclitaxel is dissolved in 50% ethanol and 50% Cremophor® EL to prepare a 10× stock solution stored at room temperature. On each day of dosing, an aliquot of the pad itaxel stock solution is diluted with 5% dextrose in water to yield a dosing solution containing 5% ethanol and 5% Cremophor® EL.
Statistical and graphical analyses was conducted by determining the difference in tumor volume between Day 1 (the start of dosing) and the endpoint day for each animal that remained on study on Day 20. Antitumor activity is expressed as % T/C (comparing the mean tumor volume change between the endpoint day and Day 1 for the treatment group to the Control). A T/C≦40% is classified as potential therapeutically active.

[3] = tested on: MCF-7(HER2), SK-BR-3, MDA-MB-231 and MDA-MB-468 breast cancer cells; settings: different doses, SK-BR-3, MDA-MB-231, MDA-MB-468, triplicates
Description: as §1

[4] = Compound A 41.1 mg/kg p.o., 1x daily
[5] = Compound A 68.5 mg/kg p.o., 1x daily
[6] = Compound C 32.7 mg/kg p.o., 1x daily
[7] = Compound C 54.4 mg/kg p.o., 1x daily until day 7 (stopped due to toxicity)
[8] = breast cancer cells, listed as metformin
[9] = Metformin 192.3 mg/kg i.p., 1x daily
[10] = Paclitaxel 30 mg/kg i.v., 1x on alternate days for 5 doses

Cn1c(=O)n(-c2ccc(C(C)(C)C#N)cc2)c2c3cc(-c4cnc5ccccc5c4)ccc3ncc21 [Compound A, 2-Methyl-2-[4-(3-methyl-2-oxo-8-quinolin-3-yl-2,3-dihydro-imidazo[4,5-c]quinolin-1-yl)-phenyl]-propionitrile]
levels of p-S6 ribosomal protein ([1]; breast cancer cells): potently decreases
p-AKT ([1]; breast cancer cells): potently decreases
p-MAPK / MAPK phosphorylation ([1]; breast cancer cells): increases MAPK phosphorylation
Mean Tumor Vol. Change [2, 4]: 598 mm^3
Regression [2, 4]: None
T/C [2, 4]: 60% (ns^†)
Mean Tumor Vol. Change [2, 5]: 466 mm^3
Regression [2, 5]: None
T/C [2, 5]: 47% (ns^†)

Nc1cc(C(F)(F)F)c(-c2cc(N3CCOCC3)nc(N3CCOCC3)n2)cn1 [Compound C, 5-(2,6-di-morpholin-4-yl-pyrimidin-4-yl)-4-trifluoromethyl-pyridin-2-ylamine]
Mean Tumor Vol. Change [2, 6]: 542 mm^3
Regression [2, 6]: None
T/C [2, 6]: 54% (ns^†)
Mean Tumor Vol. Change [2, 7]: 475 mm^3
Regression [2, 7]: None
T/C ([2]; Compound C 54.4 mg/kg p.o., 1x daily until day 7 (stopped due to toxicity), not evaluable (ne)): 48% (ne)

CN(C)C(=N)N=C(N)N [Metformin, dimethyldiguanide, reference compound]
cell proliferation / growth inhibition [3]: dose-dependent growth inhibition
cell proliferation / growth inhibition ([3]; listed as metformin): inhbitor of HER2 negative breast cancer cell proliferation
AMPK activation (p-AMPK) ([1]; breast cancer cells): activates AMPK
levels of p-S6 ribosomal protein ([1]; breast cancer cells): decreasing the levels of p-S6 ribosomal protein
receptor tyrosine kinase (EGFR and HER2) expression ([1]; breast cancer cells): reduced receptor tyrosine kinase (EGFR and HER2) expression
AMPK activation (p-AMPK) [1, 8]: activates p-AMPK
p-MAPK / MAPK phosphorylation [1, 8]: reduces p-MAPK; also recorded: decreased p-MAPK
MARK pathway transactivation induced by COMPOUND A ([1]; metformin together with COMPOUND A): counteracts
Mean Tumor Vol. Change [2, 9]: 1003 mm^3
Regression [2, 9]: None
T/C [2, 9]: 101% (ns^†)
modulation of tumor growth in the 20-day tumor growth inhibition assay ([2]; metformin monotherapy at 192.3 mg/kg): did not appear to modulate tumor growth

CC(=O)O[C@H]1C(=O)[C@@]2(C)[C@H]([C@H](OC(=O)c3ccccc3)[C@]3(O)C[C@H](OC(=O)[C@H](O)[C@@H](NC(=O)c4ccccc4)c4ccccc4)C(C)=C1C3(C)C)[C@]1(OC(C)=O)CO[C@@H]1C[C@@H]2O [Paclitaxel, reference compound]
Mean Tumor Vol. Change [2, 10]: 53 mm^3
Regression [2, 10]: None
T/C [2, 10]: 5%
T/C ([2]; Paclitaxel 30 mg/kg i.v., 1x on alternate days for 5 doses, listed as paclitaxel): 5%
